In PubChem BioAssay (NCI):
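Exposure lasted 48 hours, with cells grown in 96-well plates and compounds tested at five concentrations. TGI: concentration producing complete growth inhibition.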

Experiments:
Assay in all cases: DTP human tumour cell line panel, 48 h
[1] = tested on: A498 renal
[2] = tested on: ACHN renal
[3] = tested on: BT-549 breast
[4] = tested on: CAKI-1 renal
[5] = tested on: CCRF-CEM leukemia
[6] = tested on: COLO 205 colon
[7] = tested on: DU-145 prostate
[8] = tested on: EKVX NSCLC
[9] = tested on: HCC-2998 colon
[10] = tested on: HCT-116 colon
[11] = tested on: HL-60(TB) leukemia
[12] = tested on: HOP-62 NSCLC
[13] = tested on: HOP-92 NSCLC
[14] = tested on: HT29 colon
[15] = tested on: IGROV1 ovarian
[16] = tested on: K-562 leukemia
[17] = tested on: KM12 colon
[18] = tested on: M14 melanoma
[19] = tested on: MDA-MB-231 breast
[20] = tested on: MDA-MB-435
[21] = tested on: MDA-N
[22] = tested on: NCI-H23 lung
[23] = tested on: NCI-H522 lung
[24] = tested on: OVCAR-4 ovarian
[25] = tested on: OVCAR-5 ovarian
[26] = tested on: PC-3 prostate
[27] = tested on: RXF 393 renal
[28] = tested on: SF-295 CNS
[29] = tested on: SK-MEL-2 melanoma
[30] = tested on: SK-MEL-5 melanoma
[31] = tested on: SK-OV-3 ovarian
[32] = tested on: SNB-19 CNS
[33] = tested on: SW-620 colon
[34] = tested on: TK-10 renal
[35] = tested on: UACC-257 melanoma
[36] = tested on: UO-31 renal
[37] = tested on: 786-0 renal
[38] = tested on: A549 NSCLC
[39] = tested on: HCT-15 colon
[40] = tested on: HS 578T breast
[41] = tested on: LOX IMVI melanoma
[42] = tested on: MCF7 breast
[43] = tested on: MOLT-4 leukemia
[44] = tested on: NCI-H226 lung
[45] = tested on: NCI-H460 lung
[46] = tested on: NCI/ADR-RES ovarian
[47] = tested on: OVCAR-3 ovarian
[48] = tested on: OVCAR-8 ovarian
[49] = tested on: RPMI-8226 leukemia
[50] = tested on: SF-268 CNS
[51] = tested on: SF-539 CNS
[52] = tested on: SK-MEL-28 melanoma
[53] = tested on: SN12C renal
[54] = tested on: SNB-75 CNS
[55] = tested on: SR leukemia
[56] = tested on: T-47D breast
[57] = tested on: U251 CNS

N=c1ccc2c(c1)[nH]c1c3ccccc3[nH]c3cccc2c31
TGI [1]: 3.2 µM
TGI [2]: 2.74 µM
TGI [3]: 13.1 µM
TGI [4]: 3.02 µM
TGI [5]: > 100 µM
TGI [6]: 2.67 µM
TGI [7]: 2.95 µM
TGI [8]: 3.1 µM
TGI [9]: 2.44 µM
TGI [10]: 2.8 µM
TGI [11]: > 100 µM
TGI [12]: 2.58 µM
TGI [13]: 3.22 µM
TGI [14]: 2.47 µM
TGI [15]: 2.67 µM
TGI [16]: > 100 µM
TGI [17]: 2.6 µM
TGI [18]: 3.65 µM
TGI [19]: 2.69 µM
TGI [20]: 3.2 µM
TGI [21]: 2.76 µM
TGI [22]: 2.94 µM
TGI [23]: 3.06 µM
TGI [24]: 3.23 µM
TGI [25]: 3.16 µM
TGI [26]: 2.97 µM
TGI [27]: 3.09 µM
TGI [28]: 2.61 µM
TGI [29]: 3.14 µM
TGI [30]: 3.17 µM
TGI [31]: 3 µM
TGI [32]: 3 µM
TGI [33]: 2.02 µM
TGI [34]: 3.62 µM
TGI [35]: 3.52 µM
TGI [36]: 3.14 µM

CCCCCCCCCCCCCCCCCCOCC(CO[P+](=O)O)OCCCCCCCCCCCCCCCCCC (stereo unspecified)
TGI [37]: > 50 µM
TGI [1]: > 50 µM
TGI [38]: > 50 µM
TGI [4]: > 50 µM
TGI [6]: > 50 µM
TGI [7]: > 50 µM
TGI [8]: > 50 µM
TGI [9]: > 50 µM
TGI [10]: > 50 µM
TGI [39]: > 50 µM
TGI [11]: > 50 µM
TGI [13]: > 50 µM
TGI [40]: > 50 µM
TGI [14]: > 50 µM
TGI [15]: > 50 µM
TGI [16]: > 50 µM
TGI [17]: > 50 µM
TGI [41]: > 50 µM
TGI [18]: > 50 µM
TGI [42]: > 50 µM
TGI [19]: > 50 µM
TGI [20]: > 50 µM
TGI [21]: > 50 µM
TGI [43]: > 50 µM
TGI [44]: > 50 µM
TGI [45]: > 50 µM
TGI [23]: > 50 µM
TGI [46]: > 50 µM
TGI [47]: > 50 µM
TGI [24]: > 50 µM
TGI [25]: > 50 µM
TGI [48]: > 50 µM
TGI [26]: > 50 µM
TGI [49]: > 50 µM
TGI [27]: > 50 µM
TGI [50]: > 50 µM
TGI [51]: > 50 µM
TGI [29]: > 50 µM
TGI [52]: > 50 µM
TGI [30]: > 50 µM
TGI [31]: > 50 µM
TGI [53]: > 50 µM
TGI [32]: > 50 µM
TGI [54]: > 50 µM
TGI [55]: > 50 µM
TGI [33]: > 50 µM
TGI [56]: > 50 µM
TGI [34]: > 50 µM
TGI [57]: > 50 µM
TGI [35]: > 50 µM
